{"source": "patent US7468186B2", "about": "“Polyomavirus cellular epitopes and uses therefor” (priority 2005, dated 2008)", "key": {"[1]": {"tested_on": "splenocytes (CD8+ T cells)", "format": "cell-based, HHD-II transgenic mice"}, "[2]": {"tested_on": "Jurkat A2.1 cells pulsed with peptide"}, "[3]": {"tested_on": "CD8+ T lymphocytes of PBMC", "test": "In vitro stimulation of human PBMC with peptide and rIL-2, then tetramer reagent labeling and flow analysis"}, "[4]": {"molecular_target": "T1, HLA-A*02 (Homo sapiens, UniProt P04439, D140Y/D185E/D98H/E176V/E277Q/G131W/G231S/I119V/I121R/I166T/I218V/L300P/L318F/N151K/N90K/P208A/P217A/Q86G/Q94H/R138H/R169H/T345S)", "T1 construct": "Levels of surface HLA-A2 were measured by staining peptide-pulsed T2 cells with a fluorescent-labeled antibody to HLA-A2; endogenous in cells; host or cells: T2 cells (TAP-deficient)", "test": "T2 stabilization/HLA-A*02 binding assay (flow cytometry of surface HLA-A2 on peptide-pulsed T2 cells)", "settings": "peptide-pulsed TAP-deficient T2 cells, FIG. 1"}, "[5]": {"settings": "IVS with BKVp44, healthy HLA-A2 donors"}, "[6]": {"settings": "healthy HLA-A2 volunteers, summary of Table IV"}, "[7]": {"settings": "IVS with JCVp100, healthy HLA-A2 donors"}, "[8]": {"settings": "kidney transplant patient KTx#02 PBMC, two weeks with peptide and IL-2, percentage of CD8+ lymphocytes, FIG. 12"}}, "note": "“And” between values parts separate entries of the source, which are not always exact repeats. Equal entries are not always repeated. Ends that are not written are not given here.", "data": [{"sequence": "AITEVECFL (Polyomavirus hominis 1) [BK44]", "values": [{"measurement": "IFN-γ secretion by CD8+ cells on peptide stimulation", "setting": "[1]", "result": "induced the secretion of IFN-γ by CD8^+ cells"}, {"measurement": "recognition by transgenic murine CTL expanded with BK44", "setting": "[2]", "result": "recognized"}, {"measurement": "BOTH (tetBKVp44 and tetJCVp36)", "setting": "[3]; IVS with BKVp44, double tetramer labeling", "result": "1.79 and 0.02 and 5.7 and 0 (8×) and 0.17 and 13.2 and 2.63 and 3.38 and 0.1 and 6.1"}, {"measurement": "% tetBKVp44", "setting": "[3]; [5]", "result": "1.89% and 0% (5×) and 6.2% and 0.33% and 0.13% and 14.7% and 3.14% and 3.78% and 0.1% and 0.07% and 6.7% and 0.01% and 0.63%"}, {"measurement": "% tetJCVp36", "setting": "[3]; [5]", "result": "1.72% and 0.01% and 6.6% and 0% (4×) and 0.7% and 0.08% and 0.04% and 15% and 3.07% and 3.65% and 0.1% and 0.07% and 6.2% and 0.05%"}, {"measurement": "individuals with cells positively stained by the BK44 tetramer reagent after in vitro stimulation", "setting": "[3]; [6]", "result": "8 of 17"}, {"measurement": "individuals with cells positively stained by the JC36 tetramer reagent after in vitro stimulation", "setting": "[3]; [6]", "result": "8 of 17"}]}, {"sequence": "LLMWEAVTV [BK108]", "values": [{"measurement": "result of cytotoxicity and ICC assays", "setting": "[2]", "result": "positive results"}]}, {"sequence": "SITEVECFL [JC36]", "values": [{"measurement": "recognition by transgenic murine CTL expanded with BK44", "setting": "[2]", "result": "recognized"}]}, {"sequence": "ILKEPVNGV [control HIV peptide]", "values": [{"measurement": "cells producing IFN-γ in response to peptide", "setting": "[1]", "result": "1.94% and 3.2%"}, {"measurement": "proportion of cells responding with IFN-γ production", "setting": "[1]", "result": 0.35, "unit": "%"}]}, {"sequence": "ILMWEAVTL [JC100]", "values": [{"measurement": "cells producing IFN-γ in response to peptide", "setting": "[1]", "result": "17.29% and 22.2%"}, {"measurement": "recognition by transgenic murine CTL expanded with BK108", "setting": "[2]", "result": "recognized"}, {"measurement": "BOTH (tetBKVp108 and tetJCVp100)", "setting": "[3]; IVS with JCVp100, double tetramer labeling", "result": "0 (6×) and 0.26 and 5.17 and 0.04 and 4.3 and 0.9"}, {"measurement": "% tetBKVp108", "setting": "[3]; [7]", "result": "0.04% (2×) and 0.05% and 0% (9×) and 0.16% and 0.06% and 0.48% and 4.59% and 0.13% and 5.1% and 0.03% and 0.8%"}, {"measurement": "% tetJCVp100", "setting": "[3]; [7]", "result": "0.02% and 0% (11×) and 0.28% and 0.59% and 3.5% and 0.09% and 1.36% and 5.1% and 0.08% and 1.05%"}, {"measurement": "individuals positive for staining with the BK108 tetramer reagent after in vitro stimulation", "setting": "[3]; [6]", "result": "5 of 20"}, {"measurement": "tetramer reagent binding cells that bound both the BKV and JVC tetramer reagents", "setting": "[3]; kidney transplant patient KTx#02 PBMC after in vitro stimulation, FIG. 13", "result": 63, "unit": "%"}, {"measurement": "cells binding the BKV tetramer reagent after in vitro stimulation", "setting": "[3]; [8]", "result": 4.4, "unit": "%"}, {"measurement": "cells binding the JVC tetramer reagent after in vitro stimulation", "setting": "[3]; [8]", "result": 3.7, "unit": "%"}]}, {"sequence": "NLLMWEAVTV [BK107]", "values": [{"measurement": "result of cytotoxicity and ICC assays", "setting": "[2]", "result": "positive results"}]}, {"sequence": "LLIKGGVEV (Polyomavirus hominis 1) [BK27b]", "values": [{"measurement": "HLA-A2 binding (increase in relative fluorescence intensity on T2 cells)", "setting": "[4]", "result": "highest binding function"}]}]}
